The values that follow come from patent publication US12421212B2, “Substituted benzenecarboxamides as IL-17A modulators” (DiCE Alpha, Inc., priority 2019, dated 2025).

Where only a bound is given, the exact number is not on record here.

The target of the assay is T1, IL-17A/A (Homo sapiens, UniProt Q16552).
T1 construct: purchased Genscript Z03228
T1 sequence (Q16552 24-155): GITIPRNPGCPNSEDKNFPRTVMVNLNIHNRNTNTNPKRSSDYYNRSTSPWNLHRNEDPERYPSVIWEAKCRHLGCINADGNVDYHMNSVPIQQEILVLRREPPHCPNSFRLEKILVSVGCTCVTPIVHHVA
Nature of the assay: IL-17A/A HEK-Blue Cell Assay. The assay is classed as cell-based. The note with it: HEK-Blue IL-17A reporter cell line, SEAP readout at A630, 20 hours incubation with IL-17A/A; top concentration 10 uM, 1 uM or 0.3 uM; read-out: IL-17A/A inhibition (pIC50) (converted).

`CCC(=O)N[C@@H](C(=O)N1CCN(C)CC1)[C@@H](C)c1ccc(NC(=O)[C@@H](NC(=O)c2conc2CC)C2CCCCCC2)c(F)c1` [Compound 257]: the IC50 was under 10 nM.

On to `CCc1nonc1C(=O)N[C@H](C(=O)Nc1ccc([C@H](C)[C@@H](NC(=O)c2c(OC)cnn2CC)C(=O)N2CCN(C)CC2)cc1F)[C@H]1CC[C@H](C)CC1` [Compound 577], for which the IC50 was 10 to 100 nM.

For `CCc1nonc1C(=O)N[C@H](C(=O)Nc1ccc([C@H](C)[C@@H](NC(=O)c2cnns2)C(=O)N2CCN(C)CC2)cc1F)[C@H]1CC[C@H](C)CC1` [Compound 408], the IC50 was under 10 nM.

For `CCC(=O)N[C@@H](C(=O)N1CCC(C)(O)CC1)[C@@H](C)c1ccc(NC(=O)[C@@H](NC(=O)c2ccnn2CC)[C@H]2CC[C@H](C)CC2)c(F)c1` [Compound 343], the IC50 is 10 to 100 nM.

With `CCC(=O)N[C@@H](C(=O)N1CCN(C)CC1)[C@@H](C)c1ccc(NC(=O)[C@@H](NC(=O)c2csc3cnccc23)C2CCCCC2)c(F)c1` [Compound 249], the IC50 was 10 to 100 nM.

On to `CCC(=O)N[C@@H](C(=O)N1CCN(C)CC1)[C@@H](C)c1ccc(NC(=O)[C@@H](NC(=O)C(F)(F)c2ccc(OC)nc2)C2CCCCC2)c(F)c1` [Compound 218], for which the IC50 was 10 to 100 nM.

With `CCc1nonc1C(=O)N[C@H](C(=O)Nc1ccc([C@H](C)[C@@H](NC(=O)c2nonc2C)C(=O)N2CCN(C)CC2)cc1F)[C@H]1CC[C@H](C)CC1` [Compound 489], the IC50 is 10 to 100 nM.

For `CCn1nccc1C(=O)N[C@H](C(=O)Nc1ccc([C@H](C)[C@@H](NC(=O)[C@H](C)F)C(=O)N2CCN(C)CC2)cc1F)[C@H]1CC[C@H](C)CC1` [Compound 472], the IC50 is 10 to 100 nM.

Take `CCC(=O)N[C@@H](C(=O)N1CCN(C)CC1)[C@@H](C)c1ccc(NC(=O)C(NC(=O)c2ccnn2C(C)C)[C@@H](C)c2ccccc2)c(F)c1` (some centres unmarked) [Compound 291]: the IC50 is 10 to 100 nM.

For `CCn1nccc1C(=O)N[C@H](C(=O)Nc1ccc([C@H](C)[C@@H](NC(=O)c2cnns2)C(=O)N2CCN(C)C3(CC3)C2)cc1F)[C@H]1CC[C@H](C)CC1` [Compound 439], the IC50 is 10 to 100 nM.

For the molecule `CCC(=O)N[C@@H](C(=O)N1CCC(O)CC1)[C@@H](C)c1ccc(NC(=O)[C@@H](NC(=O)c2cnn(C3CCCC3)c2)[C@H]2CC[C@H](C)CC2)c(F)c1` [Compound 531], the IC50 was 10 to 100 nM.

For the molecule `CCC(=O)N[C@@H](C(=O)N1CCN(Cc2ccccn2)CC1)[C@@H](C)c1ccc(NC(=O)[C@@H](NC(=O)c2ccnn2CC)[C@H]2CC[C@H](C)CC2)c(F)c1` [Compound 341], the IC50 was 10 to 100 nM.

Regarding `CCn1nccc1C(=O)N[C@H](C(=O)Nc1ccc([C@H](C)[C@@H](NS(=O)(=O)CC)C(=O)N2CCN(C)CC2)cc1F)[C@H]1CC[C@H](C)CC1` [Compound 485], the IC50 is 10 to 100 nM.

For `CCC(=O)N[C@@H](C(=O)N1CCS(=O)(=O)CC1)[C@@H](C)c1ccc(NC(=O)[C@@H](NC(=O)c2ccnn2CC)[C@H]2CC[C@H](C)CC2)c(F)c1` [Compound 392], the IC50 is 10 to 100 nM.

Turning to `CCC(=O)N[C@@H](C(=O)N1C[C@H](C)N(C(=O)CC)[C@@H](C)C1)[C@@H](C)c1ccc(NC(=O)[C@@H](NC(=O)c2nonc2CC)[C@H]2CC[C@H](C)CC2)c(F)c1` [Compound 448], the IC50 was under 10 nM.

For `C[C@@H](c1ccc(NC(=O)[C@@H](NC(=O)C(F)(F)c2cccc(C#N)c2)C2CCCCCC2)c(F)c1)[C@@H](NC(=O)c1cnns1)C(=O)N1CCN(C)CC1` [Compound 391], the IC50 was under 10 nM.

For `CC(C)n1nccc1C(=O)N[C@H](C(=O)Nc1ccc([C@H](C)[C@@H](NC(=O)c2ccnn2CC2CC2)C(=O)N2CCN(C)CC2)cc1F)[C@H]1CC[C@H](C)CC1` [Compound 329], the IC50 was under 10 nM.
